Test results from ChEMBL document CHEMBL1147234, “Bioassay-guided isolation of epiquinamide, a novel quinolizidine alkaloid and nicotinic agonist from an Ecuadoran poison frog, Epipedobates tricolor” (J Nat Prod, 2003).

Assays:
Assay type in all cases: functional
[1] = target: Acetylcholine receptor; alpha1/beta1/delta/gamma (Homo sapiens) (UniProt P02708+P07510+P11230+Q07001); test: Agonist activity at human nicotinic alpha-1-beta-1-gamma-delta receptor expressed in human TE-671 cells at 50 uM by cell based membrane potential assay relative to (+/-)-epibatidine
[2] = target: Neuronal acetylcholine receptor; alpha3/beta2 (Homo sapiens) (UniProt P17787+P32297); test: Agonist activity at human nicotinic alpha3beta2 receptor expressed in human SH-SY5Y cells at 50 uM by cell based membrane potential assay relative to (+/-)-epibatidine
[3] = target: Neuronal acetylcholine receptor; alpha3/beta4 (Homo sapiens) (UniProt P30926+P32297); test: Agonist activity at human nicotinic alpha3beta4 receptor expressed in human IMR32 cells at 50 uM by cell based membrane potential assay relative to (+/-)-epibatidine; conditions: IMR-32
[4] = target: Neuronal acetylcholine receptor; alpha3/beta4 (Rattus norvegicus) (UniProt P04757+P12392); test: Agonist activity at rat nicotinic alpha3beta4 receptor expressed in human KXalpha-3-beta-4R2 cells at 50 uM by cell based membrane potential assay relative to (+/-)-epibatidine
[5] = target: Neuronal acetylcholine receptor; alpha4/beta2 (Homo sapiens) (UniProt P17787+P43681); test: Agonist activity at human nicotinic alpha4beta2 receptor expressed in human K177 cells at 50 uM by cell based membrane potential assay relative to (+/-)-epibatidine

## CC(=O)N[C@@H]1CCCN2CCCC[C@H]12 (relative stereo)
[1]
  Activity: 8%
[2]
  Activity: 51%
[3]
  Activity: 15%
[4]
  Activity: 23%
[5]
  Activity: 58%
